Drawing on BindingDB's records for doi:10.1021/cb300729y (University of Dundee, 2013), this text covers IC50 for six molecules.

In assay [1] the target is Insulin-like growth factor 1 receptor (Homo sapiens, UniProt P08069). The assay is described as follows: Kinase Assay. The procedure:
(§1) Selected compounds were screened against a panel of mammalian kinases. Compounds were supplied in DMSO and screened in duplicates at 100 uM concentration using a radioactive (33P-ATP) filter-binding-assay.

For assay [2], the target named is Casein kinase II subunit alpha (Homo sapiens, UniProt P68400). The assay is described as follows: Kinase Assay. The procedure: as §1
Sequence of Casein kinase II subunit alpha (P68400 whole entry): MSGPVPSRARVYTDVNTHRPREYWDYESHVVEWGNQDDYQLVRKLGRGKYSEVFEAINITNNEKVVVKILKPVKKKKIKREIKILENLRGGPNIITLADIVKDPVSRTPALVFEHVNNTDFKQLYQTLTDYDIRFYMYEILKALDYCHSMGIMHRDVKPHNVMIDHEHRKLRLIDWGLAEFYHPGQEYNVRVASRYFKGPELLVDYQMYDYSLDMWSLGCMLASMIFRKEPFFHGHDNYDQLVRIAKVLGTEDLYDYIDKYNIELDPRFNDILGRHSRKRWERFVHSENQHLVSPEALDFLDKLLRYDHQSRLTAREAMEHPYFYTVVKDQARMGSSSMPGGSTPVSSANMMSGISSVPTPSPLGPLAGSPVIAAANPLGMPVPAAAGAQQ
The target of assay [3] is Fibroblast growth factor receptor 1 (Homo sapiens, UniProt P11362). Description: Kinase Assay. How it is done:
as §1

The target in assay [4] is T1, Mitogen-activated protein kinase kinase kinase 7 (Homo sapiens, UniProt O43318).
T1 sequence (O43318 whole entry): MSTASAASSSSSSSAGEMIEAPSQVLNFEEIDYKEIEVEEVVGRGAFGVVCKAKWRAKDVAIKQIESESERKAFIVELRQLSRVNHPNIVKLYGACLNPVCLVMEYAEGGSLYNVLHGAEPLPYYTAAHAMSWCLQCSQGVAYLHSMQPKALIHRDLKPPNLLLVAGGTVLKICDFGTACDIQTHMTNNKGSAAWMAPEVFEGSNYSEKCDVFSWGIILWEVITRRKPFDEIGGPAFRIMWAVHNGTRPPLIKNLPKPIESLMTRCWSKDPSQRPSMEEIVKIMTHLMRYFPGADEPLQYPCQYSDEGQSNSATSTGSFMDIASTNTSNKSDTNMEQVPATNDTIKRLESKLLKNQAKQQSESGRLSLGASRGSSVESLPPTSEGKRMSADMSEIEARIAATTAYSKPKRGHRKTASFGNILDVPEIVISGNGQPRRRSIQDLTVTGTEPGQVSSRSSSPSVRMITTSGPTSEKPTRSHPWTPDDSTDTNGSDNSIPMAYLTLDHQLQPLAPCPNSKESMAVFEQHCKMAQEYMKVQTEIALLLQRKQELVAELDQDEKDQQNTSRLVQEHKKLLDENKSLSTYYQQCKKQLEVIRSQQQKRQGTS
The assay is described as follows: Kinase Assay. How it is done:
as §1

For assay [5], the target named is Dual specificity protein kinase CLK2 (Homo sapiens, UniProt P49760). The assay is described as follows: Kinase Assay. The procedure:
as §1

For assay [6], the target named is Cyclin-dependent kinase 2 (Homo sapiens, UniProt P24941). The assay is described as follows: Kinase Assay. The procedure: as §1
Assay [7] has as its target T2, Aurora kinase A (Homo sapiens, UniProt O14965).
T2 sequence (O14965 whole entry): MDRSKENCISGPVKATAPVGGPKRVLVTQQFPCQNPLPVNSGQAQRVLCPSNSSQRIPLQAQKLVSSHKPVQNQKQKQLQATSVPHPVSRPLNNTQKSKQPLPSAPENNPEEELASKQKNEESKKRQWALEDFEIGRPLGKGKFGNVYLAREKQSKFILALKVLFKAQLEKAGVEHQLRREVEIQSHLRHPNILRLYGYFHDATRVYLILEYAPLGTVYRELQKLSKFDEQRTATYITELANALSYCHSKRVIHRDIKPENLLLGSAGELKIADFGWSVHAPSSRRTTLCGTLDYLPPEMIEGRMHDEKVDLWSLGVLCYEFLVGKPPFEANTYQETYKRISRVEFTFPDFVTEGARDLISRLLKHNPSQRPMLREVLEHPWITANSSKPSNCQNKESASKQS
Description: Kinase Assay. The procedure:
as §1

Assay [8] concerns the target Germinal center kinase MAP4K2 (Homo sapiens). The assay is described as follows: Selected compounds were screened against a panel of mammalian kinases. Compounds were supplied in DMSO and screened in duplicates at 100 uM concentration using a radioactive (33P-ATP) filter-binding-assay.
Assay [9] addresses Ribosomal protein S6 kinase alpha-3 (Homo sapiens, UniProt P51812). Description: Kinase Assay. The procedure: as §1
Assay [10] concerns the target Proto-oncogene tyrosine-protein kinase Src (Gallus gallus, UniProt P00523). Description: Kinase Assay. The procedure: as §1
In assay [11] the target is MAP kinase-activated protein kinase 3 (Homo sapiens, UniProt Q16644). The assay is described as follows: Kinase Assay. The procedure: as §1
Assay [12] addresses SRSF protein kinase 1 (Homo sapiens, UniProt Q96SB4). The assay is described as follows: Kinase Assay. The procedure:
as §1

Assay [13] deals with T3, Ephrin type-B receptor 3 (Homo sapiens, UniProt P54753).
T3 sequence (P54753 whole entry): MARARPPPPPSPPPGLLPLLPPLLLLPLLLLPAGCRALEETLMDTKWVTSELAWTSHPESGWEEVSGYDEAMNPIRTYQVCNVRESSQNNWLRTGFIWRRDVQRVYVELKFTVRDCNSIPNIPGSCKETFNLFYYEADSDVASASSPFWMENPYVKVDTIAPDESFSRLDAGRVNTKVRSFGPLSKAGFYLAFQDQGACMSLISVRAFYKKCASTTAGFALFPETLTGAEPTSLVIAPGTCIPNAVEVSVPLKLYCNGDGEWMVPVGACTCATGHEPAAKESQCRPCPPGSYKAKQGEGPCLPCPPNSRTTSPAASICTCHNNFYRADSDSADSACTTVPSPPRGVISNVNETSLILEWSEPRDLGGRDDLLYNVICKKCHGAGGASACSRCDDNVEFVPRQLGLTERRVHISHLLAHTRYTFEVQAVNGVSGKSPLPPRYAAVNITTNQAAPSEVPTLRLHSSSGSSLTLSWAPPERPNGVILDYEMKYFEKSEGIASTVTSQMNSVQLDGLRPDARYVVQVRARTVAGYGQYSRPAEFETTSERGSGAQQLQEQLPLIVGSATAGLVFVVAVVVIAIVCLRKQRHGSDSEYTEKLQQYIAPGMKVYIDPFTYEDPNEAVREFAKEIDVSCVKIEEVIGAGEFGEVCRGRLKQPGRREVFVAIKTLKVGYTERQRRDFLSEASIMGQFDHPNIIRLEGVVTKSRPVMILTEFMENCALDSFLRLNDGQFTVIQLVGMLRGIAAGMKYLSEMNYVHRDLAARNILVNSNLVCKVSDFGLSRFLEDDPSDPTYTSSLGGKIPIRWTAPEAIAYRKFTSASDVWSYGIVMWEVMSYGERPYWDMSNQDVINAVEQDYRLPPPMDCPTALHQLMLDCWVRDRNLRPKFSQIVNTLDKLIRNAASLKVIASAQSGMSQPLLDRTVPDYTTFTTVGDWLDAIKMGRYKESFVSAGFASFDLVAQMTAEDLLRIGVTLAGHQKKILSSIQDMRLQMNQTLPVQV
The assay is described as follows: Kinase Assay. The procedure:
as §1

Assay [14] has as its target T4, Serine/threonine-protein kinase Sgk1 (Homo sapiens, UniProt O00141).
T4 sequence (O00141 whole entry): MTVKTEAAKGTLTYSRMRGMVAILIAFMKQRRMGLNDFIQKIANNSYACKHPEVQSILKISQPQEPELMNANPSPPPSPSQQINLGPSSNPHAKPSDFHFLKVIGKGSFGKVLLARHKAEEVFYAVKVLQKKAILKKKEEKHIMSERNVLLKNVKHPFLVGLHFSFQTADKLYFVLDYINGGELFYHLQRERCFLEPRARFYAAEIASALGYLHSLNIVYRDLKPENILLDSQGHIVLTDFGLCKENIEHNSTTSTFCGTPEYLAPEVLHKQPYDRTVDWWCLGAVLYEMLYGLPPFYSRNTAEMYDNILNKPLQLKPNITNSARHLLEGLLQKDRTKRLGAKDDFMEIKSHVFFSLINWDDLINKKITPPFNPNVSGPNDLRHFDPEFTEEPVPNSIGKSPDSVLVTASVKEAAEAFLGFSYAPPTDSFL
The assay is described as follows: Kinase Assay. How it is done: as §1

In assay [15] the target is Glycogen synthase kinase-3 beta (Homo sapiens, UniProt P49841). Description: Kinase Assay. The procedure:
as §1

The target of assay [16] is Serine/threonine-protein kinase pim-3 (Homo sapiens, UniProt Q86V86). Description: Kinase Assay. The procedure:
as §1

In assay [17] the target is Serine/threonine-protein kinase pim-1 (Homo sapiens, UniProt P11309). Description: Kinase Assay. The procedure:
as §1

Assay [18] concerns the target Serine/threonine-protein kinase Chk2 (Homo sapiens, UniProt O96017). Description: Kinase Assay. The procedure: as §1
The target in assay [19] is Tyrosine-protein kinase Yes (Homo sapiens, UniProt P07947). Description: Kinase Assay. How it is done: as §1
For assay [20], the target named is Vascular endothelial growth factor receptor 2 (Homo sapiens, UniProt P35968). The assay is described as follows: Kinase Assay. How it is done:
as §1

Sequence of Fibroblast growth factor receptor 1 (P11362 whole entry): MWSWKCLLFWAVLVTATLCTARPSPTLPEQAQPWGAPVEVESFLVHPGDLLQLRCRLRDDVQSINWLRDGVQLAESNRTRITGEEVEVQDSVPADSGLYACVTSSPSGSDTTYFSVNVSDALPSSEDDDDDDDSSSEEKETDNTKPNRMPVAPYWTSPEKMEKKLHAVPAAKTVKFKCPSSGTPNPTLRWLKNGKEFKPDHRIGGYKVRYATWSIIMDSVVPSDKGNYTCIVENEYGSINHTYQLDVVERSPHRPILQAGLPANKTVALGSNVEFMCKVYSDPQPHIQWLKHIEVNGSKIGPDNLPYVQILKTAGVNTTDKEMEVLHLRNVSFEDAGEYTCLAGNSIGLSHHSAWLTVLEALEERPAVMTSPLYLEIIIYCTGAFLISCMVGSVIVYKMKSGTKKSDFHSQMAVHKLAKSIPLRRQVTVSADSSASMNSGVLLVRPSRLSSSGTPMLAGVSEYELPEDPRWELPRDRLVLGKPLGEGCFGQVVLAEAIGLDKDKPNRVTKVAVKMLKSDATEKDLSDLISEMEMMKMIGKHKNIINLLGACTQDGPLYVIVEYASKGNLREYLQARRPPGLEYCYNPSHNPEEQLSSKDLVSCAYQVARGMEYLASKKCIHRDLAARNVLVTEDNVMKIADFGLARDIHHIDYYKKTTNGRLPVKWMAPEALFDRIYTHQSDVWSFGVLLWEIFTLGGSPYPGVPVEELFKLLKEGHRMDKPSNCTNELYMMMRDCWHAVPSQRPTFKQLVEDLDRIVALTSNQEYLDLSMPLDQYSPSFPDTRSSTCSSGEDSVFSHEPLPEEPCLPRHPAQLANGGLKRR
Sequence of Insulin-like growth factor 1 receptor (P08069 31-736 limits assumed): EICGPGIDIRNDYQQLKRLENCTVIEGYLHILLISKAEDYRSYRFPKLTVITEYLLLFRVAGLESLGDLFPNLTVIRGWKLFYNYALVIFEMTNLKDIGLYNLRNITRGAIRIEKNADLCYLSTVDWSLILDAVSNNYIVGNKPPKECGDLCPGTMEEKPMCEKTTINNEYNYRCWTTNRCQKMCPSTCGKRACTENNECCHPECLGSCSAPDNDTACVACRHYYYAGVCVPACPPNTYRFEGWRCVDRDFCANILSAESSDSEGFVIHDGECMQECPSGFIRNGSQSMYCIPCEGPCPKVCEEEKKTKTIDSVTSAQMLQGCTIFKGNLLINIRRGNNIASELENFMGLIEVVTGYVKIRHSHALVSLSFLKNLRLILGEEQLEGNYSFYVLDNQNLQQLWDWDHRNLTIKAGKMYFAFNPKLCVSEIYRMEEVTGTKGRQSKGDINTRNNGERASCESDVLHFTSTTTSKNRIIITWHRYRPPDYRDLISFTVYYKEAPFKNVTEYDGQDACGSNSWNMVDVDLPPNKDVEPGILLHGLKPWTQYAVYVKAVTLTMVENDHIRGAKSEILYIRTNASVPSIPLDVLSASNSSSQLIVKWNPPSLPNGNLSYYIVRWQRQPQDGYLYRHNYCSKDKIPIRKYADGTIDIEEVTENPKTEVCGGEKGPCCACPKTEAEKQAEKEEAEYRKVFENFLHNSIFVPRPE
Sequence of Insulin-like growth factor 1 receptor (P08069 741-1367 limits assumed): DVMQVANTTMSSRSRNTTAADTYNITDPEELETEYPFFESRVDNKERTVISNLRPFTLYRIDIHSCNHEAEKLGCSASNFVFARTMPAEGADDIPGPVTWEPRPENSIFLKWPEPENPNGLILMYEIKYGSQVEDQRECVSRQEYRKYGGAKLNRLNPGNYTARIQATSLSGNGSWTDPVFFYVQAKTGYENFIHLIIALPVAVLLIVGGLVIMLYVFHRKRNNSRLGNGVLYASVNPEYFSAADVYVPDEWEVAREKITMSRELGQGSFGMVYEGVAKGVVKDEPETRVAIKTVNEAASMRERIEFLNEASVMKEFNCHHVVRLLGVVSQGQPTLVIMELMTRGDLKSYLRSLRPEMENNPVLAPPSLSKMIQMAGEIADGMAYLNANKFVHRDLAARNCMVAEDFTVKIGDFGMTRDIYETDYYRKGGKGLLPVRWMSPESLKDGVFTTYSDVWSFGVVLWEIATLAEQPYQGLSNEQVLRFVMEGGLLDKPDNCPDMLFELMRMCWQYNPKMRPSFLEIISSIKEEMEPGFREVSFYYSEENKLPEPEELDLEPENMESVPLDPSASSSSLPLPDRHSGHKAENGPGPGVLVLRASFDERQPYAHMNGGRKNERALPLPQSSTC
Sequence of Vascular endothelial growth factor receptor 2 (P35968 whole entry): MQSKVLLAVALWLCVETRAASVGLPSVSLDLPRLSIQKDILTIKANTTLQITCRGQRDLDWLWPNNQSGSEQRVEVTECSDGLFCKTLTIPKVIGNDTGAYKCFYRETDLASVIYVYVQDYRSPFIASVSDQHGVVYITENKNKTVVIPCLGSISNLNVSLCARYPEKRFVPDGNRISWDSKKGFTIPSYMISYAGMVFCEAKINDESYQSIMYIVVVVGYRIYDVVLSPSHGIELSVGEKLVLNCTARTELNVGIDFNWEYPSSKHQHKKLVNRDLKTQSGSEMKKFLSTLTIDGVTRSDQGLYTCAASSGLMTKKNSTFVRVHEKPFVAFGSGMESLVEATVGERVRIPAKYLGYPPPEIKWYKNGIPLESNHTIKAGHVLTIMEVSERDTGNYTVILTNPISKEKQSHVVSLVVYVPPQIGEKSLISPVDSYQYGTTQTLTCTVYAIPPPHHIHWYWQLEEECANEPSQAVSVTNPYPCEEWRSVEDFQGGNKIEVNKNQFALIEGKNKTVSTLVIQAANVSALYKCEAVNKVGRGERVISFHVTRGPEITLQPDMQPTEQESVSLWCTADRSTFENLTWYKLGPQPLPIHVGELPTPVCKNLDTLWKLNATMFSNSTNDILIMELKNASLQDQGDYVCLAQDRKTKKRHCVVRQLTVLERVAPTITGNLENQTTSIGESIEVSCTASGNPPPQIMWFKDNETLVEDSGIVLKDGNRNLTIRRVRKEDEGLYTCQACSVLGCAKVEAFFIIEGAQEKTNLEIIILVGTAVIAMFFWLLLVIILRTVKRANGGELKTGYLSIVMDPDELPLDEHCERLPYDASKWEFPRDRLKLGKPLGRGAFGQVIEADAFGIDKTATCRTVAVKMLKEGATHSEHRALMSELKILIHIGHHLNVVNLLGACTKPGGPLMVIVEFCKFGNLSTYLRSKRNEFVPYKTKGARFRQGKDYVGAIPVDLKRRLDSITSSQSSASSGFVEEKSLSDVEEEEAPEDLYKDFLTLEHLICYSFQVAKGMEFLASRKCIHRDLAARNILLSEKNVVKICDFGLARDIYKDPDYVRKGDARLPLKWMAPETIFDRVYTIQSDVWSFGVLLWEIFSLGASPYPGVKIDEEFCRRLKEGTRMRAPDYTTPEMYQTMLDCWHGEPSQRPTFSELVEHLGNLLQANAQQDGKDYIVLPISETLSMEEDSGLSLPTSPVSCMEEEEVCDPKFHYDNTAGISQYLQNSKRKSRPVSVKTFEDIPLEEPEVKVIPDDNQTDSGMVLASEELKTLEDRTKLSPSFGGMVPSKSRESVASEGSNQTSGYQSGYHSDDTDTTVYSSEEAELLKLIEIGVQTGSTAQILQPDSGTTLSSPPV
Sequence of SRSF protein kinase 1 (Q96SB4 whole entry): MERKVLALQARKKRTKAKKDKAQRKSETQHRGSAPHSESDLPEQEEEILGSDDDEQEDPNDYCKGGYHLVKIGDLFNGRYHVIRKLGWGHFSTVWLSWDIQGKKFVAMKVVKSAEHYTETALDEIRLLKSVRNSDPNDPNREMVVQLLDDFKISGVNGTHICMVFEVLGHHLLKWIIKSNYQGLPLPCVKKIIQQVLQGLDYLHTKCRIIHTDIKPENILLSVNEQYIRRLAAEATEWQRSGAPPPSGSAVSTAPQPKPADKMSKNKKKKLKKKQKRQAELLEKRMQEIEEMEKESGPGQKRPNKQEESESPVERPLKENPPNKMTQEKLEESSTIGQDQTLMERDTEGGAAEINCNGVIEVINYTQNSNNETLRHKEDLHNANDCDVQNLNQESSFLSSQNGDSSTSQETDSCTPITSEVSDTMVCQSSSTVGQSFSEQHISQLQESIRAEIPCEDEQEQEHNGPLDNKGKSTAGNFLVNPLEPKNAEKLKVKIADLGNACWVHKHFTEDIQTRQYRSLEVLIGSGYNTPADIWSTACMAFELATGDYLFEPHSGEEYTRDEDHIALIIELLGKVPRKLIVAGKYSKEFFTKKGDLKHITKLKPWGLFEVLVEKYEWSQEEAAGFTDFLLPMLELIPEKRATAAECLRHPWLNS
Sequence of Serine/threonine-protein kinase pim-1 (P11309 whole entry): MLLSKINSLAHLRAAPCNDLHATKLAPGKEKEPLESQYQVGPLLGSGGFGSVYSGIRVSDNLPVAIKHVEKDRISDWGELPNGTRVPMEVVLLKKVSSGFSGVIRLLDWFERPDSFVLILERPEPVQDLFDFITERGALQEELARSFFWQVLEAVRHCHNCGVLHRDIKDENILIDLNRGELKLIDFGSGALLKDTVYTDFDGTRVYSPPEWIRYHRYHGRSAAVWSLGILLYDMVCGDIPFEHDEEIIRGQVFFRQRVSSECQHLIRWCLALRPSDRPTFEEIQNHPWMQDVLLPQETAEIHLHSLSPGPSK

A word on the IC50: it is the concentration that inhibits the measured activity by half. On to `Nc1cnc2c(-c3c(F)cccc3F)cccn2c1=O` [Kinase inhibitor, A2], for which the 50% inhibitory concentration (IC50) was 47 µM in assay [1]; 131 µM in assay [2]; 252 µM in assay [3]; 24 µM in [4]; 25 µM in assay [5]; 26 µM in assay [6]. Moreover, the figures for the half-inhibitory concentration (IC50) in assay [7] and in assay [8] were 188 µM and 4 µM, respectively.
`CC1CN(c2nc3ccccn3c(=O)c2N)CC(C)O1` (stereo unspecified) [Kinase inhibitor, A1]: the 50% inhibitory concentration (IC50) stood at 196 µM in assay [9]; 97 µM in assay [10]; 18 µM in assay [2]; 21 µM in assay [11]; 114 µM in [12].
As to `CC(C)(C)Nc1c(C2CC2)[nH]c2ncnn12` [Kinase inhibitor, D1], the half-maximal inhibitory concentration (IC50) in assay [13] came out at 158 µM; in [3], 469 µM.
In the case of `COc1ccc(-c2cc3c(=O)[nH]cnc3s2)cc1OC` [Kinase inhibitor, C2], the values for the half-maximal inhibitory concentration (IC50) in assay [14] and in assay [15] were 110 µM and 25 µM, respectively.
For the molecule `O=c1cc(-c2ccccc2F)nc2[nH]ccn12` [Kinase inhibitor, F3], the figures for the 50% inhibitory concentration (IC50) in [16] and in assay [17] were 14 µM and 22 µM, respectively.
With `Nc1nc2cnc(-c3ccccc3)cn2n1` [Kinase inhibitor, B1], the half-maximal inhibitory concentration (IC50) in assay [18] amounted to 17 µM; in [1] it was 25 µM; in assay [10], 20 µM; in [19] it was 21 µM; in assay [4], 11 µM; in [20], 39 µM. In assay [8], the IC50 stood at 6 µM.
